Literature values as cited in patent US20040063167A1, “Minimising calibration problems of in vivo glucose sensors” (priority 2002, published 2004).

Tested on: animal, plant and bacterial cells in culture

SMILES: OO [H2O2, Hydrogen peroxide]
- levels of H2O2 that seem to have limited cytotoxicity (many cell types, "at or below about"): 20 to 50 µM
- levels of H2O2 described as being cytotoxic (wide range of animal, plant and bacterial cells in culture, "usually"): ≥ 50 µM
